These results are taken from patent publication US20220089575A1, “FARNESOID X RECEPTOR AGONISTS AND USES THEREOF” (Metacrine, Inc., priority 2017, published 2022).

This assay concerns the target T1, hFXR (Homo sapiens, UniProt Q96RI1).
T1 construct: expressed in transfected cells; host or cells: CV-1 cells
T1 sequence (Q96RI1 1-486): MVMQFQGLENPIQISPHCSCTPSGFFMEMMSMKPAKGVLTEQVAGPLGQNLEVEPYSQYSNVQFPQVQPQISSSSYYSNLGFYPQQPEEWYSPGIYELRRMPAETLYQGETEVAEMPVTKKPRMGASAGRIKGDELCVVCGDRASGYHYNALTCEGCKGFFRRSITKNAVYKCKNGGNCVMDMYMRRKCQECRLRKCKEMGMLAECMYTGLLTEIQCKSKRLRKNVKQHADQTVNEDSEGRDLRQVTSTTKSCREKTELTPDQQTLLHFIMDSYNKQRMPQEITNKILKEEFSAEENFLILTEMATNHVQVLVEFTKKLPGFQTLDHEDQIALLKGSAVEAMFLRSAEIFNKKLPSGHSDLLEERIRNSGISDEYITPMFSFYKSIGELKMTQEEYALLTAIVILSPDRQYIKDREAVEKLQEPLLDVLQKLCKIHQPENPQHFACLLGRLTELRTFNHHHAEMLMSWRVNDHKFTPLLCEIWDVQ
T1 sequence (P19793 1-462 partner): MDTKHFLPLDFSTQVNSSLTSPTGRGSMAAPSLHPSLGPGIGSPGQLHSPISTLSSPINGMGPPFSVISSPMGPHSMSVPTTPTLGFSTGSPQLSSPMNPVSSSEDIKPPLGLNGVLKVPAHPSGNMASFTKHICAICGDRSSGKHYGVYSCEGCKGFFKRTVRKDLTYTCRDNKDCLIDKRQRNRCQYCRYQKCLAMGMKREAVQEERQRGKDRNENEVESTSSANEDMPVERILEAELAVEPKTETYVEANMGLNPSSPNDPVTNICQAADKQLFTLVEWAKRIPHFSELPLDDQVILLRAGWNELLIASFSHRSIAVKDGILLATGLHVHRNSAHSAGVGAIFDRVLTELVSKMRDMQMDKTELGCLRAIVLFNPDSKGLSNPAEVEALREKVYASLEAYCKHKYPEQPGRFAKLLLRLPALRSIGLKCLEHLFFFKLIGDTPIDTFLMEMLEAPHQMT
Description: In Vitro FXR Assay (TK): TK-ECRE-luc reporter in transfected CV-1 cells. It counts as cell-based. The note with it: 18 hrs, luminescence, maximum efficacy of <25% of the Fexarmine control classified as '+'. An outline of the steps:
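CV-1 cells transiently co-transfected with hFXR, hRXR, TK-ECRE-luc and pCMX-YFP plasmids in charcoal-stripped serum medium. Serially diluted compounds added, cells incubated 18 h at 37° C, then lysed and luminescence read.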
For `COCCNC(=O)[C@H]1CC[C@H](C(=O)N(C[C@H]2CC[C@H](c3ccc(OC)c(C)c3)CC2)c2cccc(-c3cnc(OC)s3)c2)CC1` [Compound 24.04, trans-N^1-((trans-4-(4-Methoxy-3-methylphenyl)cyclohexyl)methyl)-N^4-(2-methoxyethyl)-N^1-(3-(2-methoxythiazol-5-yl)phenyl) cyclohexane-1,4-dicarboxamide], the EC50 is not above 250 nM. With `COc1ncc(-c2cccc(N(C[C@H]3CC[C@H](c4ccc(OC)c(C)c4)CC3)C(=O)[C@H]3CC[C@H](C(=O)NCCN(C)C)CC3)c2)s1` [Compound 24.05, trans-N^1-(2-(Dimethylamino)ethyl)-N^4-((trans-4-(4-methoxy-3-methylphenyl)cyc1ohexyl)methyl)-N^4-(3-(2-methoxythiazol-5-yl)phenyl)cyclohexane-1,4-dicarboxamide] the figure was 250 to 1000 nM. With `COc1ncc(-c2cccc(N(C[C@H]3CC[C@H](c4ccc(OC)c(C)c4)CC3)C(=O)[C@H]3CC[C@H](C(=O)NS(C)(=O)=O)CC3)c2)s1` [Compound 24.06, trans-N^1-((trans-4-(4-Methoxy-3-methylphenyl)cyclohexyl)methyl)-N^1-(3-(2-methoxythiazol-5-yl)phenyl)-N^4-(methylsulfonyl) cyclohexane-1,4-dicarboxamide] the figure was not above 250 nM. Then `COC(=O)N[C@H]1CC[C@H](C(=O)N(C[C@H]2CC[C@H](c3ccc(OC)c(C)c3)CC2)c2cccc(-c3cnc(C4CC4)s3)c2)CC1` [Compound 25, Methyl (trans-4-((3-(2-cyclopropylthiazol-5-yl)phenyl)((trans-4-(4-methoxy-3-methylphenyl)cyclohexyl)methyl)carbamoyl)cyclohexyl)carbamate], with not above 250 nM. With `COc1ncc(-c2cccc(N(C[C@H]3CC[C@H](c4ccc(OC)c(C)c4)CC3)C(=O)[C@H]3CC[C@H](NC(=O)OC(C)(C)C)CC3)c2)s1` [Compound 25.01, tert-Butyl (trans-4-(((trans-4-(4-methoxy-3-methylphenyl)cyclohexyl)methyl)(3-(2-methoxythiazol-5-yl)phenyl)carbamoyl)cyclohexyl)carbamate], the EC50 is 250 to 1000 nM. With `COc1ncc(-c2cccc(N(C[C@H]3CC[C@H](c4ccc(OC)c(C)c4)CC3)C(=O)[C@H]3CC[C@H](CNC(=O)OC(C)(C)C)CC3)c2)s1` [Compound 25.02, tert-Butyl ((trans-4-(((trans-4-(4-methoxy-3-methylphenyl)cyclohexyl)methyl)(3-(2-methoxythiazol-5-yl)phenyl)carbamoyl)cyclohexyl)methyl)carbamate] the figure was 250 to 1000 nM; with `COc1ncc(-c2cccc(N(C[C@H]3CC[C@H](c4ccc(OC)c(C)c4)CC3)C(=O)[C@H]3CC[C@H](CN)CC3)c2)s1` [Compound 25.03, trans-4-(Aminomethyl)-N-((trans-4-(4-methoxy-3-methylphenyl)cyclohexyl)methyl)-N-(3-(2-methoxythiazol-5-yl)phenyl)cyclohexanecarboxamide], not below 1000 nM; with `COc1ncc(-c2cccc(N(C[C@H]3CC[C@H](c4ccc(OC)c(C)c4)CC3)C(=O)[C@H]3CC[C@H](NC(C)=O)CC3)c2)s1` [Compound 25.04, trans-4-Acetamido-N-((trans-4-(4-methoxy-3-methylphenyl)cyclohexyl)methyl)-N-(3-(2-methoxythiazol-5-yl)phenyl)cyclohexanecarboxamide], not above 250 nM. Then `COC(=O)N[C@H]1CC[C@H](C(=O)N(C[C@H]2CC[C@H](c3ccc(OC)c(C)c3)CC2)c2cccc(-c3cnc(OC)s3)c2)CC1` [Compound 25.05, Methyl (trans-4-(((trans-4-(4-methoxy-3-methylphenyl)cyclohexyl)methyl)(3-(2-methoxythiazol-5-yl)phenyl)carbamoyl)cyclohexyl) carbamate], with not above 250 nM; and `COc1ncc(-c2cccc(N(C[C@H]3CC[C@H](c4ccc(OC)c(C)c4)CC3)C(=O)[C@H]3CC[C@H](CNC(C)=O)CC3)c2)s1` [Compound 25.06, trans-4-(Acetamidomethyl)-N-((trans-4-(4-methoxy-3-methylphenyl)cyclohexyl)methyl)-N-(3-(2-methoxythiazol-5-yl)phenyl)cyclohexanecarboxamide], with not above 250 nM; and `COC(=O)NC[C@H]1CC[C@H](C(=O)N(C[C@H]2CC[C@H](c3ccc(OC)c(C)c3)CC2)c2cccc(-c3cnc(OC)s3)c2)CC1` [Compound 25.07, Methyl ((trans-4-(((trans-4-(4-methoxy-3-methylphenyl)cyclohexyl)methyl)(3-(2-methoxythiazol-5-yl)phenyl)carbamoyl)cyclohexyl)methyl)carbamate], with not above 250 nM. Then `COc1ncc(-c2cccc(N(C[C@H]3CC[C@H](c4ccc(OC)c(C)c4)CC3)C(=O)[C@H]3CC[C@H](CNS(C)(=O)=O)CC3)c2)s1` [Compound 25.08, trans-N-((trans-4-(4-Methoxy-3-methylphenyl)cyclohexyl)methyl)-N-(3-(2-methoxythiazol-5-yl)phenyl)-4-(methylsulfonamidomethyl) cyclohexanecarboxamide], with not above 250 nM; and `COc1ccc([C@H]2CC[C@H](CN(c3cccc(-c4cnc(C5CC5)s4)c3)C(=O)[C@H]3CC[C@H](NC(C)=O)CC3)CC2)cc1C` [Compound 25.09, trans-4-Acetamido-N-(3-(2-cyclopropylthiazol-5-yl)phenyl)-N-((trans-4-(4-methoxy-3-methylphenyl)cyclohexyl)methyl) cyclohexanecarboxamide], with not above 250 nM; and `COc1ccc([C@H]2CC[C@H](CN(c3cccc(-c4cnc(C5CC5)s4)c3)C(=O)[C@H]3CC[C@H](N(C)C(C)=O)CC3)CC2)cc1C` [Compound 25.10, trans-N-(3-(2-Cyclopropylthiazol-5-yl)phenyl)-N-((trans-4-(4-methoxy-3-methylphenyl)cyclohexyl)methyl)-4-(N-methylacetamido) cyclohexanecarboxamide], with not above 250 nM.

In the case of `COc1ccc([C@H]2CC[C@H](CN(c3cccc(-c4cnc(C5CC5)s4)c3)C(=O)[C@H]3CC[C@H](NS(C)(=O)=O)CC3)CC2)cc1C` [Compound 25.11, trans-N-(3-(2-Cyclopropylthiazol-5-yl)phenyl)-N-((trans-4-(4-methoxy-3-methylphenyl)cyclohexyl)methyl)-4-(methylsulfonamido) cyclohexanecarboxamide], the EC50 is not above 250 nM. `COCC(=O)N[C@H]1CC[C@H](C(=O)N(C[C@H]2CC[C@H](c3ccc(OC)c(C)c3)CC2)c2cccc(-c3cnc(C4CC4)s3)c2)CC1` [Compound 25.12, trans-N-(3-(2-Cyclopropylthiazol-5-yl)phenyl)-N-((trans-4-(4-methoxy-3-methylphenyl)cyclohexyl)methyl)-4-(2-methoxyacetamido) cyclohexanecarboxamide] returned an EC50 not above 250 nM. Then `COc1ccc([C@H]2CC[C@H](CN(c3cccc(-c4cnc(C5CC5)s4)c3)C(=O)[C@H]3CC[C@H](NC(=O)COC(C)=O)CC3)CC2)cc1C` [Compound 25.13, 2-((trans-4-((3-(2-Cyclopropylthiazol-5-yl)phenyl)((trans-4-(4-methoxy-3-methylphenyl)cyclohexyl)methyl)carbamoyl)cyclohexyl)amino)-2-oxoethyl acetate], with not above 250 nM. Then `COc1ccc([C@H]2CC[C@H](CN(c3cccc(-c4cnc(C5CC5)s4)c3)C(=O)[C@H]3CC[C@H](NC(=O)CO)CC3)CC2)cc1C` [Compound 25.14, trans-N-(3-(2-Cyclopropylthiazol-5-yl)phenyl)-4-(2-hydroxyacetamido)-N-((trans-4-(4-methoxy-3-methylphenyl)cyclohexyl)methyl) cyclohexanecarboxamide], with not above 250 nM; and `CNC(=O)OCC(=O)N[C@H]1CC[C@H](C(=O)N(C[C@H]2CC[C@H](c3ccc(OC)c(C)c3)CC2)c2cccc(-c3cnc(C4CC4)s3)c2)CC1` [Compound 25.15, 2-((trans-4-((3-(2-Cyclopropylthiazol-5-yl)phenyl)((trans-4-(4-methoxy-3-methylphenyl)cyclohexyl)methyl)carbamoyl)cyclohexyl)amino)-2-oxoethyl methylcarbamate], with not above 250 nM.

Regarding `CCCC(=O)N[C@H]1CC[C@H](C(=O)N(C[C@H]2CC[C@H](c3ccc(OC)c(C)c3)CC2)c2cccc(-c3cnc(C4CC4)s3)c2)CC1` [Compound 25.16, trans-4-Butyramido-N-(3-(2-cyclopropylthiazol-5-yl)phenyl)-N-((trans-4-(4-methoxy-3-methylphenyl)cyclohexyl)methyl) cyclo hexanecarboxamide], the EC50 is not above 250 nM.

The EC50 is the concentration at which the effect is half-maximal.
